Test systems include BT-549 breast; 786-0 renal; HT29 colon; NCI-H460 lung; RXF 393 renal; MDA-MB-435; SF-295 CNS; CCRF-CEM leukemia; HOP-92 NSCLC; EKVX NSCLC.
Assay in all cases: NCI-60 cell line screen, 48 h

“And” between values parts separate entries of the source, which are not always exact repeats. Equal values may be shown once.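 Following 48 hours of exposure in 96-well plates, responses at five concentrations were used to interpolate endpoints linearly. At the GI50, growth is halved. Definition used: TGI = concentration required for complete inhibition of growth.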

Turning to `CC[C@@]1(O)C(=O)NCc2c1cc1n(c2=O)Cc2cc3ccccc3nc2-1`, the GI50 in the assay on BT-549 breast is 9.04 µM; in the assay with 786-0 renal, 1.63 µM; with HT29 colon it was 9.05 µM; with NCI-H460 lung it was 0.556 µM; with RXF 393 renal, 6.11 µM; in the assay with MDA-MB-435, 10.9 µM. The GI50 was 0.575 µM in the assay with SF-295 CNS, 0.253 µM with CCRF-CEM leukemia and above 47.9 µM in the assay with EKVX NSCLC. In addition, the TGI with BT-549 breast was above 100 µM; in the assay on 786-0 renal, 9.93 µM; in the assay with HT29 colon, above 93.7 µM; in the assay on NCI-H460 lung it was above 59.2 µM; with RXF 393 renal, above 80.6 µM; in the assay with MDA-MB-435, above 100 µM. Further, the TGI with SF-295 CNS is 13.2 µM; in the assay with HOP-92 NSCLC, above 29.4 µM; in the assay on EKVX NSCLC it was above 100 µM.
Turning to `Cn1nc(C(F)(F)F)c(-c2ccc(Cl)c(C(F)(F)F)c2)c1-c1ccc(OCc2ccc(Cl)cc2)cc1O`, the GI50 with BT-549 breast is 1.54 µM; in the assay with 786-0 renal, 1.8 µM; with HT29 colon it was 1.62 µM; in the assay with NCI-H460 lung, 1.71 µM; in the assay on RXF 393 renal it was 1.41 µM; in the assay on MDA-MB-435, 1.63 µM. In addition, the GI50 in the assay on SF-295 CNS was 1.64 µM; in the assay with CCRF-CEM leukemia, 1.85 µM; with HOP-92 NSCLC it was 1.11 µM; with EKVX NSCLC it was 1.73 µM. The TGI came out at 6.51 µM in the assay with BT-549 breast; 7.12 µM with 786-0 renal; 5.42 µM in the assay with HT29 colon; 5.64 µM in the assay on NCI-H460 lung; 4.32 µM in the assay on RXF 393 renal; 6.27 µM in the assay on MDA-MB-435. Further, the TGI in the assay with SF-295 CNS was 5.59 µM; in the assay on CCRF-CEM leukemia it was 6.81 µM; with HOP-92 NSCLC it was 3.02 µM; in the assay with EKVX NSCLC it was 7.73 µM.
Regarding `COc1ccc(N2CCN(C(=O)c3ccccc3Nc3ccnc(C(F)(F)F)c3)CC2)cc1`, the GI50 with BT-549 breast was 68.5 µM; in the assay with 786-0 renal it was above 100 µM; with HT29 colon it was 77.1 µM; with NCI-H460 lung it was 50.7 µM; in the assay with RXF 393 renal, 99.9 µM; with MDA-MB-435 it was 38 µM. In addition, the GI50 is 40.5 µM with SF-295 CNS, 53.9 µM with CCRF-CEM leukemia, 5.33 µM in the assay on HOP-92 NSCLC and 39.3 µM in the assay with EKVX NSCLC. In addition, the TGI in the assay with BT-549 breast, in the assay on 786-0 renal, with HT29 colon, with NCI-H460 lung, in the assay on RXF 393 renal and in the assay on MDA-MB-435 was above 100 µM in each case. The TGI is above 100 µM in the assay on SF-295 CNS, above 100 µM in the assay with CCRF-CEM leukemia, 68.8 µM in the assay on HOP-92 NSCLC and above 100 µM in the assay on EKVX NSCLC.
`C[C@]12O[C@H](C[C@]1(O)CO)n1c3ccccc3c3c4c(c5c6ccccc6n2c5c31)CNC4=O`: the GI50 in the assay with BT-549 breast was 0.203 µM and 0.288 µM; in the assay with 786-0 renal it was 0.197 µM and 0.213 µM; with HT29 colon, 0.166 µM and 0.138 µM; with NCI-H460 lung, 0.11 µM and 0.12 µM; with RXF 393 renal it was 0.0385 µM and 0.0189 µM; in the assay on MDA-MB-435, 0.044 µM and 0.0371 µM. Further, the GI50 is 0.171 µM and 0.101 µM with SF-295 CNS; 0.0501 µM and 0.0461 µM in the assay on CCRF-CEM leukemia; 0.0422 µM and 0.174 µM with HOP-92 NSCLC; 1.56 µM with EKVX NSCLC. In addition, the TGI in the assay on BT-549 breast was 1.45 µM and 1.81 µM; with 786-0 renal, 1.45 µM and 1.89 µM; in the assay with HT29 colon it was 3.35 µM and 1.38 µM; with NCI-H460 lung, 1.63 µM and 1.78 µM; in the assay with RXF 393 renal it was 0.622 µM and 0.649 µM; with MDA-MB-435 it was 3.97 µM and 2.01 µM. Also, the TGI with SF-295 CNS is 2.45 µM and 2.02 µM; in the assay with HOP-92 NSCLC, 0.65 µM and 1.16 µM; in the assay on EKVX NSCLC, above 9.15 µM.
In the case of `COc1ccc(C(=O)c2cc(OC)c(OC)c(OC)c2)cc1OC(C)=O`, the GI50 is below 0.0199 µM in the assay with BT-549 breast; 0.672 µM in the assay on 786-0 renal; 1.15 µM with HT29 colon; 0.0379 µM in the assay with NCI-H460 lung; 0.0391 µM with RXF 393 renal; below 0.01 µM with MDA-MB-435. Moreover, the GI50 is 0.0796 µM in the assay with SF-295 CNS, 0.0353 µM in the assay on CCRF-CEM leukemia, 1.73 µM with HOP-92 NSCLC and 2.24 µM with EKVX NSCLC. Further, the TGI in the assay with BT-549 breast was above 67.5 µM; in the assay on 786-0 renal, above 100 µM; in the assay with HT29 colon it was above 100 µM; in the assay with NCI-H460 lung, above 100 µM; with RXF 393 renal it was above 100 µM; in the assay with MDA-MB-435 it was 0.0102 µM. Further, the TGI in the assay on SF-295 CNS, with CCRF-CEM leukemia, in the assay on HOP-92 NSCLC and with EKVX NSCLC was above 100 µM throughout.
Take `CC1(C)N=C(N)N=C(N)N1c1cccc(C#N)c1`: the GI50 is 27.9 µM with BT-549 breast; 0.578 µM with 786-0 renal; 0.933 µM in the assay with HT29 colon; 2.8 µM in the assay with NCI-H460 lung; 4.33 µM in the assay on RXF 393 renal; 0.594 µM in the assay with MDA-MB-435. The GI50 in the assay on SF-295 CNS is 2.05 µM; with CCRF-CEM leukemia it was 3.05 µM; with EKVX NSCLC it was 1.09 µM. For the same compound, the TGI in the assay on BT-549 breast, with 786-0 renal, in the assay on HT29 colon, with NCI-H460 lung, in the assay with RXF 393 renal and in the assay with MDA-MB-435 was above 100 µM in each case. For the same compound, the TGI in the assay on SF-295 CNS was 24.1 µM; in the assay on CCRF-CEM leukemia it was above 100 µM; in the assay on EKVX NSCLC, above 100 µM.
On to `C/C(=C\c1ccc(Cl)cc1)C(C)(C)C(=O)O`, for which the TGI in the assay with BT-549 breast, with 786-0 renal, with HT29 colon, with NCI-H460 lung, in the assay on RXF 393 renal and with MDA-MB-435 was above 100 µM in each case. Further, the TGI with SF-295 CNS, in the assay on CCRF-CEM leukemia, with HOP-92 NSCLC and in the assay with EKVX NSCLC was above 100 µM each time.
Regarding `CCCCCCCCCCCCn1c(C)nc2ccccc21`, the GI50 is 12 µM in the assay with BT-549 breast; 11.5 µM in the assay with 786-0 renal; 11.6 µM with HT29 colon; 10.5 µM in the assay on NCI-H460 lung; 12.8 µM in the assay on MDA-MB-435; 8.87 µM in the assay on SF-295 CNS. Moreover, the GI50 in the assay with CCRF-CEM leukemia was 2.79 µM; in the assay on HOP-92 NSCLC, 11 µM; in the assay with EKVX NSCLC, 1.72 µM. In addition, the TGI in the assay with BT-549 breast worked out at 28.7 µM; in the assay with 786-0 renal it was 24 µM; with HT29 colon, 23.7 µM; with NCI-H460 lung, 24.3 µM; in the assay with MDA-MB-435, 28.8 µM; with SF-295 CNS, 26.6 µM. For the same compound, the TGI was 21.2 µM in the assay on CCRF-CEM leukemia, 23.9 µM with HOP-92 NSCLC and 19.3 µM in the assay on EKVX NSCLC.

Source of the values: PubChem BioAssay (NCI).
